The source of these data is US6447801B1, “Anti-parasitic action of N,N-diethyl-m-toluamide (deet) and formulations that prolong its activity in the skin” (priority 1997, dated 2002).

The test system of series [1] is cercariae. Conditions: in tissue culture / in vitro, cited from earlier work.
Series [2] can be described thus: Disposition of 14C-DEET and 14C-Lipodeet after skin application (skin, blood, urine, bedding radioactivity). How it is done: In this series of experiments, 11.472 mg of ^14C-DEET of ^14C-Lipodeet (in 100 μl) was applied to 5 cm^2 area of the mice abdominal skin. At different time points (15 min, 30 min, 60 min, 2 hrs., 4 hrs., 24 hrs., 48 hrs. and 72 hrs.) after application, the whole area of skin where the lipodeet had been applied was collected, underlying tissue removed and the radioactivity measured in a Beckman β-counter. Samples of blood and urine were also collected at these time points from each mouse to measure the radioactivity (n=10 for each time point). […] In this study, we made observations only up to 72 hrs. […] There are two possibilities, (1) substantial quantities of both DEET and Lipodeet are absorbed systemically through the skin within 24 hrs., or (2) both the chemicals are lost in the bedding due to direct contact of the applied area to the bedding materials. The first hypothesis was tested by measuring ^14C levels in the blood and urine in these animals.

Where two headings read alike, the source gives them in different places.

Consider `O=C(Nc1ccc([N+](=O)[O-])cc1Cl)c1cc(Cl)ccc1O` [Niclosamide], for which the cercaricidal effect result in series [1] was “significant cercaricidal effect”.

As to `C[C@@H]1CC[C@H]2C(C)(C)[C@H]3C[C@@]12CC[C@@]3(C)O` [Cederol], the cercaricidal effect entry in series [1] is on record as “significant cercaricidal effect”. `CCCCOC(=O)c1ccccc1C(=O)OCCCC` [dibutyl phthalate]: the cercaricidal effect entry in series [1] was “significant cercaricidal effect”. In the case of `CCCCCCCCCCCC(=O)N(CC)CC` [N,N-diethyl lauramide], the cercaricidal effect entry in series [1] was “significant cercaricidal effect”. As to `Oc1c(Cl)cc(Cl)c(Cl)c1Cc1c(O)c(Cl)cc(Cl)c1Cl` [hexachlorophene], the cercaricidal effect entry was “significant cercaricidal effects” in series [1] and “significant cercaricidal effect” in series [1] (listed as hexachlorophere). In the case of `CCN(CC)C(=O)c1cccc(C)c1` [^14C-DEET], in series [2] (15 minutes after application), the urine radioactivity was > 5.7×10^7 cpm/ml. Also, the “radio label in the blood” value in series [2] (within 15 minutes after application) is “Significant quantity of the radio label was present in the blood”. On to `O=C(OCc1ccccc1)c1ccccc1` [benzyl benzoate], for which the cercaricidal effect result in series [1] is “significant cercaricidal effect”.
